# Source: the NIST ThermoML archive (doi:10.1021/je0602115)
# Several values for one entry are separate records, joined by “and”; a condition that tells them apart may be missing. Identical values can stand only once. ± gives the expanded uncertainty stated by the source.
# Details: 313.15 K; Liquid; Closed cell (Static) method
row,Compound,vapor or sublimation pressure
1,CCOC(C)(C)C [2-ethoxy-2-methylpropane],31.62 ± 0.12 kPa and 31.63 ± 0.12 kPa and 31.64 ± 0.12 kPa
2,CCCCCCC [heptane],12.32 ± 0.056 kPa and 12.33 ± 0.056 kPa and 12.31 ± 0.056 kPa
3,Cc1ccccc1 [toluene],7.88 ± 0.041 kPa [middle of 4 runs]
